Laboratory results reported in patent EP0182135A2, “Novel bis-(substituted amino) anthraquinones” (AMERICAN CYANAMID COMPANY, priority 1984, dated 1986).
Several values for one entry are separate records, joined by “and”; a condition that tells them apart may be missing. Equal entries are not always repeated. Structures can show the parent of a compound that is named as a salt.

Key:
[1] = test system: lymphocytic leukemia P388; experiment: Lymphocytic Leukemia P388 Test; assay type: in vivo, DBA/2 mice
Method: Lymphocytic Leukemia P388 Test
The animals used were DBA/2 mice all of one sex, weighing a minimum of 17 g and all within a 3 g weight range. There were 5 or 6 animals per test group. The tumor transplant was by intraperitoneal injection of 0.1 ml of dilute ascitic fluid containing 10^6 cells of lymphocytic leukemia P388. The test compounds were administered intraperitoneally on days 1, 5 and 9 (relative to tumor inoculation) at various doses. The animals were weighed and survivors were recorded on a regular basis for 30 days. The median survival time and the ratio of survival time for treated (T)/control (C) animals were calculated. The positive control compound was 1,4-dihydroxy-5,8-bis--[ [2-(2-hydroxyethylamino)ethyl ]amino]anthraquinone, dihydrochloride (U.S. Patent 4,197,249) given at the indicated doses by injection.

melanotic melanoma B16 = experiment: Melanotic Melanoma B16 Test; assay type: in vivo, C57BC/6 mice
Method: The animals used were C57BC/6 mice, all of the same sex, weighing a minimum of 17 g and all within a 3 g weight range. There were normally 10 animals per test group. A 1.0 g portion of melanotic melanoma B16 tumor was homogenized in 10 ml of cold balanced salt solution and a 0.5 ml aliquot of the homogenate was implanted intraperitoneally into each of the test mice. The test compounds were administered intraperitoneally on days one through nine (relative to tumor inoculation) at various doses. The animals were weighed and survivors recorded on a regular basis for 60 days. The median survival time and the ratio of survival time for treated (T)/control (C) animals were calculated. The positive control compound was 1,4-dihydroxy-5,8-bis[[2-(2-hydroxyethylamino)-ethyl]amino]anthraquinone, dihydrochloride (U.S. Patent 4,197,249) given at the indicated doses by injection.

[2] = Dose 0.025 mg/kg intraperitoneally on days 1, 5 and 9, dihydrochloride, 0.025 mg/kg
[3] = Dose 0.1 mg/kg intraperitoneally on days 1, 5 and 9, dihydrochloride, 0.1 mg/kg
[4] = Dose 0.4 mg/kg intraperitoneally on days 1, 5 and 9, dihydrochloride, 0.4 mg/kg
[5] = Dose 1.6 mg/kg intraperitoneally on days 1, 5 and 9, dihydrochloride, 1.6 mg/kg
[6] = Dose 0.025 mg/kg by injection, dihydrochloride, 0.025 mg/kg
[7] = Dose 0.1 mg/kg by injection, dihydrochloride, 0.1 mg/kg
[8] = Dose 0.2 mg/kg intraperitoneally on days one through nine
[9] = Dose 0.4 mg/kg by injection, dihydrochloride, 0.4 mg/kg
[10] = Dose 0.8 mg/kg intraperitoneally on days one through nine
[11] = Dose 1.6 mg/kg by injection, dihydrochloride, 1.6 mg/kg

O=C1c2c(O)ccc(O)c2C(=O)c2c(NCCNCCO)ccc(NCCNCCO)c21 [Positive Control, 1,4-dihydroxy-5,8-bis--[ [2-(2-hydroxyethylamino)ethyl]amino]anthraquinone, dihydrochloride, reference compound]
Median Survival [1, 2]: 17 days and 18 days and 16 days | T/C x 100 (%) [1, 2]: 170% and 171% and 145% | Median Survival [1, 3]: 25.5 days and 14.5 days and 16.5 days and 21.5 days | T/C x 100 (%) [1, 3]: 255% and 132% and 150% and 205% and 232% | Median Survival ([1]; Dose 0.2 mg/kg intraperitoneally on days 1, 5 and 9): 14.5 days | T/C x 100 (%) ([1]; Dose 0.2 mg/kg intraperitoneally on days 1, 5 and 9, dihydrochloride, 0.2 mg/kg): 153% and 126% | Median Survival [1, 4]: 19.5 days and 27 days and >30 days and 19 days and 26.5 days | T/C x 100 (%) [1, 4]: 205% and 169% and 270% and >273% and 173% and 252% | Median Survival ([1]; Dose 0.8 mg/kg intraperitoneally on days 1, 5 and 9): 18 days | T/C x 100 (%) ([1]; Dose 0.8 mg/kg intraperitoneally on days 1, 5 and 9, dihydrochloride, 0.8 mg/kg): 189% and 156% | Median Survival [1, 5]: >30 days and 19.5 days | T/C x 100 (%) [1, 5]: >316% and >261% and >300% and >273% and >286% and 177% | Median Survival ([1]; Dose 3.2 mg/kg by injection): >30 days | T/C x 100 (%) ([1]; Dose 3.2 mg/kg by injection, dihydrochloride, 3.2 mg/kg): >261% and >316% | Median Survival (melanotic melanoma B16; [6]): 28 days and 26 days and 33 days and 28.5 days | T/C x 100 (%) (melanotic melanoma B16; [6]): 137% and 161% and 133% | Median Survival (melanotic melanoma B16; [7]): 36 days and 31.5 days and 39 days and 32 days and 42 days | T/C x 100 (%) (melanotic melanoma B16; [7]): 176% and 166% and 190% and 133% and 195% | Median Survival (melanotic melanoma B16; [8]): 32 days | T/C x 100 (%) (melanotic melanoma B16; [8]): 158% | Median Survival (melanotic melanoma B16; [9]): 36 days and >60 days and 58 days | T/C x 100 (%) (melanotic melanoma B16; [9]): 178% and >293% and >317% and >250% and 270% | Median Survival (melanotic melanoma B16; [10]): 35 days | T/C x 100 (%) (melanotic melanoma B16; [10]): 173% | Median Survival (melanotic melanoma B16; [11]): >60 days and 38 days and 37 days | T/C x 100 (%) (melanotic melanoma B16; [11]): >293% and >297% and 200% and >250% and 172%
